{
  "source": "patent US20250243174A1",
  "about": "“ANTITUMORAL COMPOUNDS” (PHARMA MAR, S.A., priority 2021, published 2025)",
  "format_in_all_cases": "in vivo",
  "conditions_in_all_cases": "for TV, median (IQR) / Median survival time: iv Q7dx3; for TV, median (IQR): high dose: PM060184 16, Comp. 2 2, Comp. 3 1 mg/kg",
  "key": {"H460 xenografts": {"system": "H460 xenografts", "assay": "Example 5, NSCLC xenograft model H460", "method": "(§1) Female athymic nu/nu mice (Harlan Laboratories Models, S.L. Barcelona, Spain or Envigo, Spain) were utilized for all experiments. Animal were housed in individually ventilated cages Sealsafe® Plus, Techniplast S.P.A.), up to ten per cage on a 12-hour light-dark cycle at 21-23° C. and 40-60% humidity. Mice were allowed free access to irradiated standard rodent diet (Tecklad 2914C) and sterilized water. Animals were acclimated for at least 5 days prior to tumor implantation with a tumor cell suspension.\nH460 cells were maintained in vitro at 37° C. with 5% CO2 in Dulbecco's Modified Eagle's Medium (Sigma-Aldrich, Co). Culture cells were passaged every 3 to 5 days upon reaching confluence. Each animal was subcutaneously implanted (on the right flank using 26G needle and a 1 cc syringe) at 4-6 weeks of age with 5×10^6 H460 cells suspended in 0.05 mL of a solution consisting of 50% Matrigel® (Corning Incorporated Life Sciences) and 50% medium without serum or antibiotics.\n(§2) All treatments were intravenously administered on a weekly basis at their MTD, ¼ MTD and 1/16 MTD (high, medium and low dose).\n(§3) Briefly: • 4 to 6 week-old athymic nu/nu female mice were subcutaneously implanted with tumor cells growing in culture. • When tumors reached a certain volume, tumor bearing animals (N=8-10/group) were randomly allocated into treatment groups. • Tumor dimensions and body weights were recorded 2-3 times per week starting from the first day of treatment (Day 0). Treatments producing >20% lethality and/or 20% net body weight loss were considered toxic. Tumor volume was calculated using the equation (a·b^2)/2, where a and b were the longest and shortest diameters, respectively. Animals were euthanized when their tumors reached ca. 2,000 mm^3 and/or severe necrosis was seen. • Median was calculated for tumor volume on each measurement day. • Antitumor effect was assessed comparing tumor volume data from groups following the 1st, 2nd, 3rd study weeks, or more depending on the case, using a two-tailed Mann-Whitney U test. The data are presented as medians and interquartile range (IQR). • Complete tumor regression (CR) was defined when tumor volume<63 mm^3 for 2 or more consecutive measurements. • Treatment tolerability was assessed by monitoring body weight evolution, clinical signs of systemic toxicity as well as evidences of local damage at the injection site.\n(§4) PM060184 was provided in the form of freeze-dried vials of lyophilized product. Each vial was reconstituted with water for infusion to a concentration of 2.5 mg/mL.\n(§5) Compounds 2 and 3 were provided in the powder form and were solubilized with hydroxy-propyl-β-cyclodextrin (HPβCD), reaching a concentration of 1 mg/ml or 0.2 mg/ml, respectively. Placebo was provided in the form of lyophilised cake containing 1.2 g of hydroxy-propyl-β-cyclodextrin (HPβCD) which was reconstituted with water for infusion.\n(§6) In these experiments, compounds 2, 3 and PM060184, as well as placebo, were intravenously administered once per week for 3 consecutive weeks, on Days 0, 7 and 14, whenever it was possible.\nThe experiment was carried out as previously explained. When tumors reached ca. 160-170 mm^3, tumor bearing animals (N=10/group) were randomly allocated into the following treatment groups:\n(§7) Treatments were initiated on Day 0."}, "HGC-27 xenografts": {"system": "HGC-27 xenografts", "assay": "Example 6, gastric xenograft model HGC-27", "method": "as §1\nHGC27 cells were maintained in vitro at 37° C. with 5% CO2 in Iscove's Modified Dulbecco's Medium (Sigma Aldrich, Co). Culture cells were passage every 3 to 5 days on reaching confluence. Each animal was subcutaneously implanted (on the right flank using 26G needle and a 1 cc syringe) at 4-6 weeks of age with 5×10^6 HGC-27 cells suspended in 0.05 mL of a solution consisting of 50% Matrigel® (Corning Incorporated Life Sciences), 50% medium without serum or antibiotics.\nas §2, §3, §4, §5, §6\nThe experiment was carried out as previously explained. When tumors reached ca. 165-175 mm^3, tumor bearing animals (N=8/group) were randomly allocated into the following treatment groups:\nas §7"}, "HCT-116 xenografts": {"system": "HCT-116 xenografts", "assay": "Example 7, colon xenograft model HCT-116", "method": "as §1\nHCT116 cells were maintained in vitro at 37° C., 5% Co2 in McCoy's 5A Medium (Sigma Aldrich, Co.). Culture cells were passage every 3 to 5 days on reaching confluence. Each animal was subcutaneously implanted (on the right flank using 26G needle and a 1 cc syringe) at 4-6 weeks of age with 5×10^6 HCT116 cells suspended in 0.05 mL of a solution consisting of 50% Matrigel® (Corning Incorporated Life Sciences) and 50% medium without serum or antibiotics.\nas §2, §3, §4, §5, §6\nThe experiment was carried out as previously explained. When tumors reached ca. 195-205 mm^3, tumor bearing animals (N=10/group) were randomly allocated into the following treatment groups:\nas §7"}, "[1]": {"conditions": "compound 2 2.0 mg/kg, compound 3 1.0 mg/kg"}, "[2]": {"conditions": "high dose: compound 2 2.0, compound 3 1.0, PM060184 16 mg/kg"}, "[3]": {"conditions": "highest dose: compound 2 2.0, compound 3 1.0 mg/kg"}, "[4]": {"conditions": "low dose: PM060184 1.0, Comp. 2 0.125, Comp. 3 0.0625 mg/kg"}, "[5]": {"conditions": "medium dose: PM060184 4.0, Comp. 2 0.5, Comp. 3 0.25 mg/kg"}, "[6]": {"conditions": "recorded on Day 9, compound 2 2.0 mg/kg, compound 3 1.0 mg/kg"}, "[7]": {"conditions": "high dose: PM060184 16.0, Comp. 2 2.0, Comp. 3 1.0 mg/kg, ud = group not reached mortality"}, "[8]": {"conditions": "medium-dose: compound 2 0.5, compound 3 0.25 mg/kg"}},
  "data": [
    {"compound": "COC1=CC[C@@H]([C@@H](C)/C=C(C)/C=C\\C=C/C(=O)N[C@H](C(=O)N/C=C\\C[C@H](C/C=C(\\C)F)OC(N)=O)C(C)(C)C)OC1=O", "note": "[Compound 2]", "values": [
      {"measurement": "tumor reduction compared to placebo", "setting": "H460 xenografts; Day 7, higher doses 16, 2 or 1 mg/kg", "result": "very strong, statistically significant tumor reduction"},
      {"measurement": "TV, median (IQR)", "setting": "H460 xenografts; Day 7", "result": "114.7 (97.2-131.6) mm3"},
      {"measurement": "TV, median (IQR)", "setting": "H460 xenografts; Day 14", "result": "80.9 (61.1-109.3) mm3"},
      {"measurement": "TV, median (IQR)", "setting": "H460 xenografts; Day 21", "result": "53.5 (33.4-59.7) mm3"},
      {"measurement": "TV, median (IQR)", "setting": "H460 xenografts; Day 28", "result": "95.0 (73.2-119.1) mm3"},
      {"measurement": "TV, median (IQR)", "setting": "H460 xenografts; Day 35", "result": "505.4 (428.9-583.7) mm3"},
      {"measurement": "antitumor activity compared to PM060184 (16 mg/kg)", "setting": "H460 xenografts; [1]", "result": "stronger, statistically significant, antitumor activity"},
      {"measurement": "mean time frame during which the animals had tumor remission", "setting": "H460 xenografts; [1]", "result": 8.8, "unit": "days"},
      {"measurement": "Median survival time", "setting": "H460 xenografts; high dose: PM060184 16.0, Comp. 2 2.0, Comp. 3 1.0 mg/kg", "result": 45.5, "unit": "days"},
      {"measurement": "tumor remissions lasted", "setting": "H460 xenografts; [2]", "result": "more than 48 days"},
      {"measurement": "animals with complete tumor remission", "setting": "H460 xenografts; [3]", "result": 100, "unit": "%"},
      {"measurement": "Median survival time", "setting": "H460 xenografts; [4]", "result": 14, "unit": "days"},
      {"measurement": "Median survival time", "setting": "H460 xenografts; [5]", "result": 40, "unit": "days"},
      {"measurement": "tumor remissions lasted", "setting": "H460 xenografts; medium dose: compound 2 0.5 mg/kg", "result": 30.9, "unit": "days"},
      {"measurement": "mean body weight reduction", "setting": "H460 xenografts; [6]", "result": "ca. −13.4%"},
      {"measurement": "mean body weight reduction", "setting": "HGC-27 xenografts; Day 2, compound 2 2.0, compound 3 1.0, PM060184 16 mg/kg", "result": "ca. −13.1%"},
      {"measurement": "TV, median (IQR)", "setting": "HGC-27 xenografts; Day 7", "result": "313.6 (237.3-482.4) mm3"},
      {"measurement": "TV, median (IQR)", "setting": "HGC-27 xenografts; Day 14", "result": "143.2 (96.1-223.6) mm3"},
      {"measurement": "TV, median (IQR)", "setting": "HGC-27 xenografts; Day 21", "result": "75.0 (51.6-75.0) mm3"},
      {"measurement": "TV, median (IQR)", "setting": "HGC-27 xenografts; Day 28", "result": "42.5 (37.0-63.9) mm3"},
      {"measurement": "TV, median (IQR)", "setting": "HGC-27 xenografts; Day 35", "result": "32.9 (20.4-36.6) mm3"},
      {"measurement": "Median survival time", "setting": "HGC-27 xenografts; [7]", "result": "ud"},
      {"measurement": "mean time frame with tumor remission", "setting": "HGC-27 xenografts; high dose: compound 2 2.0, compound 3 1.0, PM060184 16 mg/kg, last observed day 63", "result": "higher than 29.1 days"},
      {"measurement": "animals in complete tumor remission status", "setting": "HGC-27 xenografts; [3]", "result": 100, "unit": "%"},
      {"measurement": "Median survival time", "setting": "HGC-27 xenografts; [4]", "result": 14, "unit": "days"},
      {"measurement": "Median survival time", "setting": "HGC-27 xenografts; [5]", "result": 38.5, "unit": "days"},
      {"measurement": "antitumor activity compared to PM060184-treated group at 16 mg/kg", "setting": "HGC-27 xenografts; once treatments were stopped (days 28, 35), 2 at 2 mg/kg, 3 at 1 mg/kg", "result": "big difference, in terms of antitumor activity, statistically significant"},
      {"measurement": "TV, median (IQR)", "setting": "HCT-116 xenografts; Day 7", "result": "135.5 (114.1-154.5) mm3"},
      {"measurement": "TV, median (IQR)", "setting": "HCT-116 xenografts; Day 14", "result": "57.2 (47.1-62.9) mm3"},
      {"measurement": "TV, median (IQR)", "setting": "HCT-116 xenografts; Day 21", "result": "25.0 (13.5-34.0) mm3"},
      {"measurement": "TV, median (IQR)", "setting": "HCT-116 xenografts; Day 28", "result": "13.5 (13.5-32.0) mm3"},
      {"measurement": "TV, median (IQR)", "setting": "HCT-116 xenografts; Day 35", "result": "13.5 (13.5-13.5) mm3"},
      {"measurement": "Median survival time", "setting": "HCT-116 xenografts; [7]", "result": "ud"},
      {"measurement": "mean time with tumor remission", "setting": "HCT-116 xenografts; [2]", "result": 25.8, "unit": "days"},
      {"measurement": "animals in complete tumor remission", "setting": "HCT-116 xenografts; [3]", "result": 100, "unit": "%"},
      {"measurement": "Median survival time", "setting": "HCT-116 xenografts; [4]", "result": 19, "unit": "days"},
      {"measurement": "Median survival time", "setting": "HCT-116 xenografts; [5]", "result": 58, "unit": "days"},
      {"measurement": "animals that reached a complete remission (n/10)", "setting": "HCT-116 xenografts; [8]", "result": "4/10"},
      {"measurement": "complete remission lasted a mean of", "setting": "HCT-116 xenografts; [8]", "result": 9, "unit": "days"},
      {"measurement": "antitumor activity compared to PM060184-treated group at 16 mg/kg", "setting": "HCT-116 xenografts; once treatments were finalized (days 21 to 35), 2 at 2 mg/kg, 3 at 1 mg/kg", "result": "big difference, in terms of antitumor activity, statistically significant"},
      {"measurement": "mean body weight reduction", "setting": "HCT-116 xenografts; [6]", "result": "ca. −13.5%"}
    ]}
  ]
}
